Source: ChEMBL document CHEMBL4334502, “Basimarols A, B, and C, Highly Oxygenated Pimarane Diterpenoids from Basilicum polystachyon” (J Nat Prod, 2019)
pIC50: −log10 of the molar value. The source made the active and inactive calls. The rule behind the calls is not given here.

Key:
NFF = test: Cytotoxicity against human NFF cells assessed as reduction in cell viability incubated for 6 days by SRB assay; type: cell-based; conditions: 144 h
SK-MEL-28 = test: Cytotoxicity against human SK-MEL-28 cells assessed as reduction in cell viability incubated for 6 days by SRB assay; type: functional, cell-based; conditions: SK-MEL-28, 144 h
MCF7 = test: Cytotoxicity against human MCF7 cells assessed as reduction in cell viability incubated for 6 days by SRB assay; type: functional, cell-based; conditions: MCF7, 144 h
Dengue virus = test: Antiviral activity against DENV infected in African green monkey Vero cells assessed as reduction in plague formation incubated for 72 hrs by immunofluorescence assay; type: functional, organism-based
Influenza A virus = test: Antiviral activity against influenza virus H1N1 infected in MDCK cells assessed as reduction in plague formation incubated for 72 hrs by immunofluorescence assay; type: functional, organism-based
Influenza A virus H3N2 = test: Antiviral activity against influenza virus H3N2 infected in MDCK cells assessed as reduction in plague formation incubated for 72 hrs by immunofluorescence assay; type: functional, organism-based
Kunjin virus = test: Antiviral activity against West Nile virus Kunjin infected in African green monkey Vero cells assessed as reduction in plague formation incubated for 72 hrs by immunofluorescence assay; type: functional

| SMILES | pIC50 (NFF) | pIC50 (SK-MEL-28) | pIC50 (MCF7) | Activity (Dengue virus) | pIC50 (Influenza A virus) | pIC50 (Dengue virus) | pIC50 (Influenza A virus H3N2) | pIC50 (Kunjin virus) | Activity (Influenza A virus) | Activity (Influenza A virus H3N2) |
| --- | --- | --- | --- | --- | --- | --- | --- | --- | --- | --- |
| C=C[C@]1(C)C[C@]2(O)[C@H](OC(C)=O)C(=O)[C@H]3C(C)(C)CC[C@H](O)[C@]3(COC(C)=O)[C@H]2C[C@@H]1OC(C)=O | < 3.70 | < 3.70 | 3.75 | Active | – | – | – | – | – | – |
| C=C[C@]1(C)C[C@@]2(O)[C@H](CC1=O)C13CO[C@@](O)([C@H]1[C@@](C)(COC(=O)c1ccccc1)CC[C@H]3O)[C@H]2OC(C)=O | 4.28 | 4.15 | 4.24 | Active | – | – | – | – | – | – |
| C=C/C(C)=C/C[C@H]1C(C)=CC[C@@H]2[C@]1(C)CCC[C@@]2(C)C(=O)O | – | – | – | – | 5.39 | 5.85 | 4.74 | 5.92 | – | – |
| C=C[C@]1(C)C[C@@]23O[C@@H](OC(C)=O)C4([C@H]2C[C@@H]1O)[C@@H](O)CCC(C)(C)[C@@H]4C(=O)[C@H]3OC(C)=O | 4.02 | 3.80 | 4.07 | Active | – | – | – | – | – | – |
| C=C1CC[C@@H]2[C@](C)(CO)[C@H](O)CC[C@@]2(C)[C@@H]1C/C=C1/C(=O)OC[C@H]1O [ANDROGRAPHOLIDE] | – | – | – | Active | – | – | – | 4.00 | inactive | inactive |
